Assay results as given in ChEMBL document CHEMBL5321293, “Discovery of ERD-3111 as a Potent and Orally Efficacious Estrogen Receptor PROTAC Degrader with Strong Antitumor Activity” (J Med Chem, 2023).
Active and inactive are the calls of the source. The rule behind the calls is not given here.

Tests used:
[1] = Half life in Beagle dog at 1 mg/kg, po and measured upto 24 hrs by LC-MS/MS analysis; assay type: ADME, organism-based, Canis lupus familiaris; settings: in vivo
[2] = Toxicity in CB17 SCID mouse xenografted with human MCF7 cells harboring wild type ESR1 assessed as body weight change at 10 mg/kg,po qd for 5 weeks; assay type: organism-based; settings: in vivo, 840 h
[3] = Volume of distribution at steady state in Sprague-Dawley rat at 1 mg/kg, iv and measured upto 24 hrs by LC-MS/MS analysis; settings: in vivo
[4] = molecular target: Cytochrome P450 2D6 (Homo sapiens, UniProt P10635); experiment: Inhibition of CYP2D6 in human liver microsomes preincubated for 5 mins in presence substrate followed by NADPH addition and measured after 10 mins by LC-MS/MS analysis; assay type: ADME, Microsome
[5] = tested on: MCF7; experiment: Antitumor activity against human MCF7 cells harboring ESR1 D538G mutant xenografted in CB17 SCID mouse assessed as tumor growth inhibition at 30 mg/kg, po qd for 4 weeks and measured 1 week post last dose; assay type: functional, organism-based
[6] = Downregulation of ERalpha protein expression in tumor of CB17 SCID mouse xenografted with human MCF7 cells harboring wild type ESR1 at 30 mg/kg, po qd for 3 days and measured after 3 hrs last dose by Western blot analysis relative to control; assay type: functional; settings: time 3 day
[7] = Half life in Sprague-Dawley rat at 3 mg/kg, po and measured upto 24 hrs by LC-MS/MS analysis; settings: in vivo
[8] = Toxicity in CB17 SCID mouse xenografted with human MCF7 cells harboring ESR1 D538G mutant assessed as body weight change at 30 mg/kg,po qd for 4 weeks; assay type: organism-based; settings: in vivo, 672 h
[9] = tested on: MCF7; experiment: Antitumor activity against human MCF7 cells harboring ESR1 Y537S mutant xenografted in CB17 SCID mouse assessed as tumor growth inhibition at 10 mg/kg, po qd for 4 weeks; assay type: functional; settings: MCF7, 672 h, read-out: TGI
[10] = Downregulation of ERalpha protein expression in tumor of CB17 SCID mouse xenografted with human MCF7 cells harboring ESR1 D538G mutant at 10 mg/kg, po qd for 3 days and measured after 6 hrs last dose by Western blot analysis relative to control; assay type: functional; settings: time 3 day
[11] = molecular target: Cytochrome P450 2C9 (Homo sapiens, UniProt P11712); experiment: Inhibition of CYP2C9 in human liver microsomes preincubated for 5 mins in presence substrate followed by NADPH addition and measured after 10 mins by LC-MS/MS analysis; assay type: ADME, Microsome
[12] = Clearance in Beagle dog at 0.5 mg/kg, iv and measured upto 24 hrs by LC-MS/MS analysis; assay type: ADME, organism-based, Canis lupus familiaris; settings: in vivo
[13] = AUC in Sprague-Dawley rat at 3 mg/kg, po and measured upto 24 hrs by LC-MS/MS analysis; assay type: ADME, organism-based; parameters: dose 3 mg/kg, time < 24 hrs, route po; settings: Sprague-Dawley, in vivo
[14] = Drug concentration in tumor of CB17 SCID mouse xenografted with human MCF7 cells harboring wild type ESR1 at 30 mg/kg, po qd for 3 days and measured after 6 hrs last dose by LC-MS/MS analysis; assay type: ADME, organism-based, Neoplasm; settings: time 3 day, read-out: Ct
[15] = Drug concentration in plasma of CB17 SCID mouse xenografted with human MCF7 cells harboring ESR1 D538G mutant at 10 mg/kg, po qd for 3 days and measured after 6 hrs last dose by LC-MS/MS analysis; assay type: ADME, organism-based; settings: time 3 day
[16] = Toxicity in CB17 SCID mouse xenografted with human MCF7 cells harboring ESR1 D538G mutant assessed as body weight change at 10 mg/kg,po qd for 4 weeks; assay type: organism-based; settings: in vivo, 672 h
[17] = Drug concentration in tumor of CB17 SCID mouse xenografted with human MCF7 cells harboring wild type ESR1 at 30 mg/kg, po qd for 3 days and measured after 24 hrs last dose by LC-MS/MS analysis; assay type: ADME, organism-based, Neoplasm; settings: time 3 day, read-out: Ct
[18] = Downregulation of ERalpha protein expression in tumor of CB17 SCID mouse xenografted with human MCF7 cells harboring wild type ESR1 at 10 mg/kg, po qd for 3 days and measured after 24 hrs last dose by Western blot analysis relative to control; assay type: functional; settings: time 3 day
[19] = molecular target: Cytochrome P450 3A4 (Homo sapiens, UniProt P08684); experiment: Inhibition of CYP3A4 in human liver microsomes using testosterone as substrate preincubated for 5 mins followed by NADPH addition and measured after 10 mins by LC-MS/MS analysis; assay type: ADME, Microsome
[20] = molecular target: T1, Protein cereblon/Estrogen receptor (Homo sapiens, UniProt P03372+Q96SW2); experiment: Protac activity at human ERalpha in human MCF7 cells assessed as induction of ERalpha degradation by measuring maximum efficacy at 1 uM incubated for 12 hrs by ICW blot assay relative to control; assay type: cell-based
[21] = tested on: MCF7; experiment: Antitumor activity against human MCF7 cells harboring ESR1 Y537S mutant xenografted in CB17 SCID mouse assessed as tumor growth inhibition at 30 mg/kg, po qd for 4 weeks and measured 30 days post last dose; assay type: functional; settings: MCF7, 672 h, read-out: TGI
[22] = molecular target: Cytochrome P450 2C19 (Homo sapiens, UniProt P33261); experiment: Inhibition of CYP2C19 in human liver microsomes preincubated for 5 mins in presence substrate followed by NADPH addition and measured after 10 mins by LC-MS/MS analysis; assay type: ADME, Microsome
[23] = Toxicity in CB17 SCID mouse xenografted with human MCF7 cells harboring wild type ESR1 assessed as body weight change at 30 mg/kg,po qd for 5 weeks; assay type: organism-based; settings: in vivo, 840 h
[24] = Cmax in Beagle dog at 1 mg/kg, po and measured upto 24 hrs by LC-MS/MS analysis; assay type: ADME, organism-based, Canis lupus familiaris; parameters: time < 24 hrs, dose 1 mg/kg, route po; settings: in vivo
[25] = molecular target: T1, Protein cereblon/Estrogen receptor; experiment: Protac activity at human ERalpha in human T47D cells assessed as reduction in ERalpha protein level at 0.1 to 100 nM by Western blot analysis; assay type: cell-based; settings: dose 0.1-100 nM
[26] = molecular target: T2, Cytochrome P450 1A2 (Homo sapiens, UniProt P05177); experiment: Inhibition of CYP1A2 in human liver microsomes preincubated for 5 mins in presence substrate followed by NADPH addition and measured after 10 mins by LC-MS/MS analysis; assay type: ADME, Microsome
T2 sequence (P05177 whole entry): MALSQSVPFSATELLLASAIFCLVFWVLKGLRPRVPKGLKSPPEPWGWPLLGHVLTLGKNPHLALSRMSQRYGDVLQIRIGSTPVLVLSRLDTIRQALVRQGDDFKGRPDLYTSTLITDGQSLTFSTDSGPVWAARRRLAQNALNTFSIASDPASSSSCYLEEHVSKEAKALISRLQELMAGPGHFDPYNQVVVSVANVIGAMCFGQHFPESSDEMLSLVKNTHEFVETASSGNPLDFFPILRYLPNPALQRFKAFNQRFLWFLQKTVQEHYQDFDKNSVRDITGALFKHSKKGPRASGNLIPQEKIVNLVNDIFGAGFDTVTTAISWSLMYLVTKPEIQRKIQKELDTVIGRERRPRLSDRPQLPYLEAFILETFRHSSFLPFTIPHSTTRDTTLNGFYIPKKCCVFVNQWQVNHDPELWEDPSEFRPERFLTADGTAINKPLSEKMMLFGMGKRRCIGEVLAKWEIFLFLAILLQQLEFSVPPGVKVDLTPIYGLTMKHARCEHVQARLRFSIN

[27] = tested on: MCF7; experiment: Antitumor activity against human MCF7 cells harboring ESR1 Y537S mutant xenografted in CB17 SCID mouse assessed as tumor growth inhibition at 30 mg/kg, po qd for 4 weeks; assay type: functional; settings: MCF7, 672 h, read-out: TGI

T1 sequence (P03372 whole entry, looked up): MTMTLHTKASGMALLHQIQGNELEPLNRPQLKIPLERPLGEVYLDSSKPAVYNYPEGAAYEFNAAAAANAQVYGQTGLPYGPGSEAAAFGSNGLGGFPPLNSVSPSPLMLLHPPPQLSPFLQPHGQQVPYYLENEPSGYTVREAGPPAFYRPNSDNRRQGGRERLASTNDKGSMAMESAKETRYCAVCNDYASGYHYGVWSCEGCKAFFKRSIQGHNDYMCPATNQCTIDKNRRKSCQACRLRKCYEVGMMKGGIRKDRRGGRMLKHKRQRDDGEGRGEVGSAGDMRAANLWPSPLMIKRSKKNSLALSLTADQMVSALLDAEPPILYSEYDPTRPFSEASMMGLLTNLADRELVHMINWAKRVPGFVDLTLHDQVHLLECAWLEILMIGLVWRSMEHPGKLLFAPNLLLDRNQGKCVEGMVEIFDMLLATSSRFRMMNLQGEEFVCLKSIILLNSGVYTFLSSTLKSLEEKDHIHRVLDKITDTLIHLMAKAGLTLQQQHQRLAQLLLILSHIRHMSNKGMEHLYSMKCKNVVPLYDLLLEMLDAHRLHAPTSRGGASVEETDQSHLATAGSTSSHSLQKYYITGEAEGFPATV
T1 sequence (Q96SW2 whole entry, looked up): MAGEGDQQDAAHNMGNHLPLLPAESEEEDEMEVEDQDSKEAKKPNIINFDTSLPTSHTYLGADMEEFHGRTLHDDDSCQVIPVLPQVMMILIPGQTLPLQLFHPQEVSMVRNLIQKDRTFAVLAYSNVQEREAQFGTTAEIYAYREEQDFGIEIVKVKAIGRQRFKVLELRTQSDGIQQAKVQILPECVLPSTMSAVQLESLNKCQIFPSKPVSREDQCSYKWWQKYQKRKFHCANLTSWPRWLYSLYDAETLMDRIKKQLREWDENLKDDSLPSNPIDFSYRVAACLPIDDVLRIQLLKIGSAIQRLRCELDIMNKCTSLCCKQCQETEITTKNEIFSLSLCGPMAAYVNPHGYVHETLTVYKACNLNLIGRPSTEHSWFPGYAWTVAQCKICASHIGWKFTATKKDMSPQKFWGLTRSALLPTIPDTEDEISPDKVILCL
Cytochrome P450 3A4, sequence (P08684 whole entry): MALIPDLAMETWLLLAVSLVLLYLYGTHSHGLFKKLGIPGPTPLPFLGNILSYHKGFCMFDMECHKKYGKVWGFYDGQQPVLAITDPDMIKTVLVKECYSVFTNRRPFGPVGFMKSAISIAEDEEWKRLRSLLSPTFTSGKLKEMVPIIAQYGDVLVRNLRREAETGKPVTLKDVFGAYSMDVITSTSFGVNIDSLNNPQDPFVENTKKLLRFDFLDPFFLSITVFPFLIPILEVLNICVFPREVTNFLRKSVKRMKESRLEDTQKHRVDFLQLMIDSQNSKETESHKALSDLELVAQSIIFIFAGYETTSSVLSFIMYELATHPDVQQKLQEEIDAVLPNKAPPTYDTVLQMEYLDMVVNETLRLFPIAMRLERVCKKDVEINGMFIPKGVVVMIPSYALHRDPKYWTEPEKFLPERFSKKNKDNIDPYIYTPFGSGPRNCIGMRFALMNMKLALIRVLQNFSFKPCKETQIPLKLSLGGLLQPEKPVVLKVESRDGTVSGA
Cytochrome P450 2C19, sequence (P33261 whole entry): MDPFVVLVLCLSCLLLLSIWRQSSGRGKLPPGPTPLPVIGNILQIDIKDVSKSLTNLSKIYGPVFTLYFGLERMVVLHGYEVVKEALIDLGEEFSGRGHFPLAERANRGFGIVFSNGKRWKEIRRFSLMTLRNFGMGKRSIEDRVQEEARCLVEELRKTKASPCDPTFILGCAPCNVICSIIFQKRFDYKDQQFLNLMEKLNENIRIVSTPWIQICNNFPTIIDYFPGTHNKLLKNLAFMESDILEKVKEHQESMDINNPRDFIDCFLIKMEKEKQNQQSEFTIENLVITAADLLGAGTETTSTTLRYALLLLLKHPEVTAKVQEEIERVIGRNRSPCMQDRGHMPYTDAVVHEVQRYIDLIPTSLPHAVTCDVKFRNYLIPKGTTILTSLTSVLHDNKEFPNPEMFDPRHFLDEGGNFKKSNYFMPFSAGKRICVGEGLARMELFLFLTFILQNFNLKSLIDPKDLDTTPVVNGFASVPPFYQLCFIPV
Cytochrome P450 2D6, sequence (P10635 whole entry): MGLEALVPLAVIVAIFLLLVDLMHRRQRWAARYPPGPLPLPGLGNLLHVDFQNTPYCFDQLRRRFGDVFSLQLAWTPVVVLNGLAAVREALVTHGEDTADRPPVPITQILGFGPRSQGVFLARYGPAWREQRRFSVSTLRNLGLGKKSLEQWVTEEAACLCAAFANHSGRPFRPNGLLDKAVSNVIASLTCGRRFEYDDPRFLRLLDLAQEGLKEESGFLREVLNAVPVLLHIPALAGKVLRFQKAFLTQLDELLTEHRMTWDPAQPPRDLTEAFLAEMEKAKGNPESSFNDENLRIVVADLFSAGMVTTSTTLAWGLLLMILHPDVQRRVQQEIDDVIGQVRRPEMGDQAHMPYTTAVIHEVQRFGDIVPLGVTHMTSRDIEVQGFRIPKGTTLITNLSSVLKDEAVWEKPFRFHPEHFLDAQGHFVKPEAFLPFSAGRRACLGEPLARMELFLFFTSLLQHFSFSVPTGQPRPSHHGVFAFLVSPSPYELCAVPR
Cytochrome P450 2C9, sequence (P11712 whole entry): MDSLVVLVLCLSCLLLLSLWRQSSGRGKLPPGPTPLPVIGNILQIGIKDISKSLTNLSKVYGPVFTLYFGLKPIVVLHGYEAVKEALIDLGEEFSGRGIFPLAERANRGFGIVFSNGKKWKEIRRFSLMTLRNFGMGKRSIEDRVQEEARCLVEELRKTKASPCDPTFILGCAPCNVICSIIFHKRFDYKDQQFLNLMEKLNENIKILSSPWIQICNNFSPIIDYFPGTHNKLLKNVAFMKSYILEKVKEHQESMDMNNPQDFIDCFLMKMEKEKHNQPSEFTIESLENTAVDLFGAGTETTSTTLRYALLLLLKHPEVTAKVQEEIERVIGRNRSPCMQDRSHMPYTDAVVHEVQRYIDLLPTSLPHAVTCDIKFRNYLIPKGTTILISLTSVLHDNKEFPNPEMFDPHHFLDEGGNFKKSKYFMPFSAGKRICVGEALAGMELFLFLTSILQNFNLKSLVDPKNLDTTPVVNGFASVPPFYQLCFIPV

Structure (SMILES): C[C@@H]1Cc2c(ccc3[nH]ncc23)[C@@H](c2c(F)cc(N3CCC4(CCN(C(=O)CN5Cc6cc7c(cc6C5)C(=O)N(C5CCC(=O)NC5=O)C7=O)CC4)CC3)cc2F)N1CC(F)F (some centres not stated)
- half-life [1]: 7.9 h
- Activity [2]: Non-Toxic
- Vd at 24 h [3]: 1.3 L/kg
- IC50 [4]: > 10 µM
- Activity [5]: Active
- Activity [6]: 82%
- half-life at 24 h [7]: 4 h
- Activity [8]: Non-Toxic
- inhibition in vivo at 10 mg/kg [9]: 72%
- Activity [10]: 68%
- IC50 [11]: > 10 µM
- clearance [12]: 11 mL/min/kg
- AUC at 24 h [13]: 1320 ng·h/mL
- concentration at 72 h [14]: 1470 ng/mL
- concentration at 72 h [15]: 609 ng/mL
- Activity [16]: Non-Toxic
- concentration at 72 h [17]: 413 ng/mL
- Activity [18]: 70%
- IC50 [19]: > 10 µM
- Emax [20]: 91%
- inhibition in vivo at 30 mg/kg [21]: 101%
- IC50 [22]: > 10 µM
- Activity [23]: Non-Toxic
- Cmax [24]: 87 ng/mL
- Activity [25]: Dose-Dependent Effect
- IC50 [26]: > 10 µM
- inhibition in vivo at 30 mg/kg [27]: 86%
